Reference: patent US10525139B2, “Folate-conjugated molecules for delivery of toxic small molecule inhibitors to cancer cells and methods of use” (priority 2014, dated 2020)
Entries after “also recorded” stand apart in the source; their conditions may differ.

Columns and labels:
[1] = system: T-ALL cell lines; assay: T-ALL cell viability / growth (ATP content, Cell-Titer Glo); assay type: cell-based, human
[2] = system: NOTCH1 target genes; assay: NOTCH1 target gene expression by RT-PCR in T-ALL cell lines; assay type: cell-based, human; details: T-ALL cells (ALL/SIL, DND41), 24 hours
Method: Errors bars denote mean±SD of 4 replicates. […] The blot was stained with an antibody against the C-terminus of NOTCH1 that recognizes both the furin-processed NOTCH1 transmembrane subunit (TM) and the unprocessed NOTCH1 precursor (FL). The immunoblot was also stained with anti-ICN1 antibody. GAPDH was used as a loading control. […] Error bars indicate the mean±SD of 4 replicates. Data were analyzed using the ΔΔCT method and plotted as a percentage relative to the control gene RPL13A. Statistical significance among groups for treated vs. vehicle (DMSO) samples (***P≤0.0001) was determined by one-way ANOVA with Bonferroni's correction for multiple comparison testing. […] The blot was stained with an antibody against the C-terminus of NOTCH1 (N1) that recognizes both the furin-processed NOTCH1 transmembrane subunit (TM). GAPDH was used as a loading control. […] Cells were probed with an anti-NOTCH1 antibody (green) and nuclei were counterstained with DAPI. […] Error bars indicate the mean±SD of 4 replicates. Data were analyzed using the ΔΔCT method and plotted as a percentage relative to the control gene RPL13A. Statistical significance (***P≤0.001. ****P≤0.0001) for treated vs. vehicle (DMSO) was determined by one-way ANOVA with Bonferroni's correction for multiple comparison testing. […]

[3] = LCMS analysis of cell lysate and media; assay type: in vitro ADME; details: 24 h treatment with FT
Method: In order to validate the delivery of the Thap-OH, LCMS analysis of the cell lysate and the media was used to detect the presence of both Folate-Thap (FT) and Thap-OH. […] To directly visualize the folate delivery of a small molecule, folic acid derivatives with appended fluorophores were designed. Both Folate-FITC, suitable for flow cytometry studies, and Folate-TMARA, suitable for high-throughput fluorescence plate readers, were evaluated in vitro to determine the delivery mechanism.

[4] = system: T-ALL cell lines; assay: T-ALL cell viability / growth (ATP content, Cell-Titer Glo); assay type: cell-based, human; details: for cell growth / proliferation: T-ALL cell lines, 10 μM
Method: Thus, cell lines carrying NOTCH1 alleles with HD domain, mutations were more sensitive to Thap-OH than cells with WT NOTCH1 alleles.
As a further test of the idea that JQ-FT acts by preventing NOTCH1 activation in a manner similar to thapsigargin, the NOTCH1-dependent T-ALL cell lines RPMI-8402 were transduced with empty MigRI vector or with ICN1, which lies downstream of the γ-secretase cleavage step in Notch activation. Viral supernatant production and retroviral infections were performed as described for MigRI retroviral vectors (Aster, J. C., et al. “Essential roles for ankyrin repeat and transactivation domains in induction of T-cell leukemia by NOTCH1.” Mol. Cell. Biol. 2000; 20:7505-7515). Transduction efficiency for MigRI was monitored by assessing GFP expression with a FACScan flow cytometer (BD, Franklin Lakes, N.J., USA) (Aster et al., Mol. Cell. Biol. 2000; 20:7505-7515). After viral infection, GFP-positive cells were sorted by flow cytometry with a FACSAria II (BD, Franklin Lakes, N.J., USA). […] Therefore, JQ-FT can recapitulate the Thapsigargin effect with the delivery mechanism of folate.
The NOTCH loss was measured via flow cytometry. […] The recapitulation of the thapsigargin effect by JQ-FT is hypothesized to be due to the delivery strategy introduced by folate. […] Here cell growth was assessed using the Promega Cell-Titer Glo ATP-based assay (Promega, Madison, Wis., USA). Luminescence was measured using a Fluostar Omega instrument (BMG-labtech, Ortenberg, Germany).
The effects of JQ-FT in a panel of T-ALL cell lines that contain activating mutations in the HD domain of NOTCH1 and/or protein stabilizing deletions within the PEST degradation domain.

## C/C=C(/C)C(=O)O[C@H]1C(C)=C2C([C@@H]1OC(=O)CCCCCCC)[C@@](C)(OC(C)=O)C[C@H](OC(=O)CC[C@H](NC(=O)c1ccc(NCc3cnc4nc(N)[nH]c(=O)c4n3)cc1)C(=O)O)[C@@]1(O)[C@H]2OC(=O)[C@@]1(C)O (some centres unmarked) [JQ-FT]
[1]; T-ALL cell lines, 10 μM
  cell cycle: G1 cell cycle arrest
  induction of apoptosis in T-ALL cell lines: rapid induction of apoptosis
[1]; cell lines overexpressing FR1 or FR2
  effect on cell viability in FR-overexpressing cell lines: greater effect on cell viability
[2]
  NOTCH1 target gene expression: suppression of NOTCH1 target genes
[3]
  detection of the conjugate in cell culture media and cell lysate: not detected in either cell culture media (24 h treatment) or cell lysate
[4]; RPMI 8402 transduced with MigR1-ICN1 vs empty vector
  rescue of loss of viability by exogenous ICN1: overexpressing an exogenous ICN1 partially rescues the observed phenotype; also recorded: attenuated the growth inhibitory effects of JQ-FT
[4]
  cell growth / proliferation: impaired cell growth
[4]; listed as Folate-Thap
  cell growth / proliferation: antiproliferation effect; also recorded: arrest of cell proliferation
